Data taken from US20130216614A1, “IMMUNOGENIC COMPOSITIONS AND METHODS FOR TREATING NUEROLOGIC DISORDERS” (Glaxosmithkline Biologicals S.A., priority 2010, published 2013).

Experiments:
TLR2 mRNA = experiment: In situ hybridization of TLR2 transcript in brain after peripheral injection; type: in vivo, C57BL/6J mice; conditions: 24 hr after single i.p. injection; CRX compounds 20 μg/mouse, 3D MPL 50 μg/mouse
Description: In order to evaluate the innate activation within the brain, we have performed in situ hybridization 24 hr following the systemic injection of either 3D MPL, CRX524 or CRX527 or CRX601 using the intra peritoneal route.
Specifically GSK Bio injected different compositions in C57BL/6J mice for evaluating the potency of those adjuvants after 24 hrs of peripheral injection to trigger microglial cell activation in the brain. Animal study groups were:
GSK Bio performed the injections in C57BL6 mice at the Centre de biologie expérimentale de I'INRS-IAF under an IACUC approved protocol. Twenty four hours after the injections, mice were deeply anesthetized via an intraperitoneal injection of a mixture of ketamine hydrochloride and xylazine and then perfused intracardially with ice-cold 0.9% saline, followed by 4% paraformaldehyde (PFA) in a 0.1 M borax buffer, pH 9.5, at 4° C. Brains were rapidly removed from skulls, postfixed in PFA 1-3 d at 4° C. and sent to the CHUL. They were then cryoprotected in 10% sucrose diluted in PFA overnight. The frozen brains were sectioned into 25-μm-thick coronal sections using a microtome (Reichert-Jung, Cambridge Instruments Company), and slices were collected in a cold cryoprotectant solution (0.05 M sodium phosphate buffer, pH 7.3, 30% ethylene glycol, and 20% glycerol, stored at −20° C.).
Every 12th section of brain slices, starting from the end of the olfactory bulb to the end of the cerebral cortex, was mounted on Colorfrost/Plus microscope slides (Fisher Scientific). In situ hybridization histochemical localization of TLR2 transcript was performed using ^35S-labeled cRNA probe. […]
Dual labeling combining immunocytochemistry and in situ hybridization was performed as described previously (Laflamme and Rivest, 2001; Nadeau and Rivest, 2000 infra) to localize TLR2 transcripts in microglia (iba-1 staining). […] The images depicted by the different panels are representative of the signal detected on the slides for each group of mice.

APPSwe/PS1 mice = experiment: Aβ plaque loading in brain, stereological analysis; type: in vivo; conditions: 50 μg/mouse i.p. weekly for 12 weeks
Experimental: Five groups of APPSwe/PS1 mice have received one a week for a period of 12 weeks the following treatment: • Gr1: APPSwe/PS1+NaCl 0.9% n(=20), i.p. injections • Gr4: APPSwe/PS1+CRX527 (20 μg/mouse, 130 μl, n=10), i.p. injections • Gr5: APPSwe/PS1+CRX601 (20 μg/mouse, 130 μl, n=10), i.p. injections • Gr6: APPSwe/PS1+3D MPL (50 μg/mouse, 130 μl, n=10), i.p. injections • Gr8 APPSwe/PS1+AS15 • Gr9: APPSwe/PS1+AS01B ( 1/10th of human dose μg/kg, 50 μl, n=10), i.m. injections
Mice were anesthetized under isofluorane and blood was drawn via cardiac puncture before head decapitation. Brains were rapidly removed from the skulls and placed in cold phosphate buffered saline (PBS) solution. Then hemibrains were separated and olfactory bulbs and cerebellum were removed. One hemibrain was rapidly frozen in liquid nitrogen and stored at −80° C. for protein analysis. The other one was postfixed for 2-4 days in 4% paraformaldehyde (PFA), pH 9.5 at 4° C., and then placed in a PFA solution containing 10% sucrose overnight at 4° C. […]
An observer who was blind to the treatment status of the material did all quantitative histological analyses. […] Briefly, the contours of the prefrontal cortex, the hippocampus and the cortex areas were traced as virtual overlay on the […] images and areas were calculated. The area occupied by all Aβ-labeled plaques was determined. […]

[1] = Innate cytokine/chemokine profile in sera after injection; type: in vivo, C57BL/6 mice
Experimental: FIG. 17: Innate cytokines profile from sera after either LPS or 3DMPL injected mice using the intraperitoneal route at 2 hr or 6 hr post injection time point. Results are shown in relative units (RU or pg/ml) of various cytokines/chemokines in sera for PBS and LPS or 3DMPL injected mice after 2 hours or 6 hours. N=5 mice per group. […] Tukey post-hoc test used for the comparison following ANOVA-1 analysis.
FIG. 18: Innate cytokines profile from sera after either AS01B, AS03 or AS04D injected mice using the intramuscular at 2 hr or 6 hr post injection time point. Results are shown in relative units (RU or pg/ml) of various cytokines/chemokines in sera for PBS and LPS or 3D MPL injected mice after 2 hours or 6 hours. N=5 mice per group. The bars represent mean±SEM.
We measured several cytokines and chemokines in the sera of C57BL/6 mice 2 and 6 h following a single intraperitoneal injection of either MPL or LPS.
Innate cytokines profile from sera after either AS01B, AS03 or AS04D was injected into mice using the intramuscular route, samples taken at 2 hr or 6 hr post injection time point. Results are shown in relative units (RU or pg/ml) of various cytokines/chemokines in sera for PBS and LPS or MPL injected mice after 2 hours or 6 hours. N=5 mice per group. The bars represent mean±SEM.

Row | Compound | TLR2 mRNA activation in ventricular regions and choroid plexus (TLR2 mRNA) | Amyloid beta plaque number (APPSwe/PS1 mice) | Aβ total plaque loading by immunofluorescence vs PBS control group (APPSwe/PS1 mice) | CCL2 level compared to the LPS group ([1]; 2 h after i.p. injection) | CXCL-1 level compared to the LPS group ([1]; 2 h after i.p. injection) | levels of TNF-α and IL-6 in sera ([1]; 2 h post i.p. injection) | levels of TNF-α and IL-6 in sera ([1]; 6 h post i.p. injection) | serum cytokine and chemokine levels compared with LPS-treated animals ([1]; single i.p. injection, 2 and 6 h)
1 | CCCCCCCCCCC[C@H](CC(=O)N[C@H]1[C@H](OC[C@H](NC(=O)C[C@@H](CCCCCCCCCCC)OC(=O)CCCCCCCCC)C(=O)O)O[C@H](CO)[C@@H](OP(=O)(O)O)[C@@H]1OC(=O)C[C@@H](CCCCCCCCCCC)OC(=O)CCCCCCCCC)OC(=O)CCCCCCCCC [CRX527] | clearly activated | – | – | – | – | – | – | –
2 | CCCCCCCCCCC[C@H](CC(=O)N[C@H]1[C@H](OC[C@H](NC(=O)C[C@@H](CCCCCCCCCCC)OCCCCCCCCCC)C(=O)O)O[C@H](CO)[C@@H](OP(=O)(O)O)[C@@H]1OC(=O)C[C@@H](CCCCCCCCCCC)OCCCCCCCCCC)OCCCCCCCCCC [CRX601] | clearly activated | – | – | – | – | – | – | –
3 | 3-O-desacyl-4′-monophosphoryl lipid A [3D MPL] | lesser extent | statistically significant reduction | significant difference | higher | similar | modest increase | essentially abolished | substantially lower
